This note sets out measurements from ChEMBL document CHEMBL1133808, “The discovery of sulfonylated dipeptides as potent VLA-4 antagonists” (Bioorg Med Chem Lett, 2001).

pIC50: −log10 of the molar value. A value given as a limit tells only on which side of the number the result lay.

The nature of series [1]: Plasma clearance in Sprague-Dawley rats. Format: ADME, organism-based. The conditions noted are these: rat, read-out: Clp.
Series [2] in a line: Plasma half-life in Sprague-Dawley rats. The conditions noted are these: rat. Format: ADME, organism-based.
For series [3], the target named is T1, Integrin alpha-4/beta-7 (Homo sapiens, UniProt P13612+P26010).
T1 sequence (P13612 whole entry): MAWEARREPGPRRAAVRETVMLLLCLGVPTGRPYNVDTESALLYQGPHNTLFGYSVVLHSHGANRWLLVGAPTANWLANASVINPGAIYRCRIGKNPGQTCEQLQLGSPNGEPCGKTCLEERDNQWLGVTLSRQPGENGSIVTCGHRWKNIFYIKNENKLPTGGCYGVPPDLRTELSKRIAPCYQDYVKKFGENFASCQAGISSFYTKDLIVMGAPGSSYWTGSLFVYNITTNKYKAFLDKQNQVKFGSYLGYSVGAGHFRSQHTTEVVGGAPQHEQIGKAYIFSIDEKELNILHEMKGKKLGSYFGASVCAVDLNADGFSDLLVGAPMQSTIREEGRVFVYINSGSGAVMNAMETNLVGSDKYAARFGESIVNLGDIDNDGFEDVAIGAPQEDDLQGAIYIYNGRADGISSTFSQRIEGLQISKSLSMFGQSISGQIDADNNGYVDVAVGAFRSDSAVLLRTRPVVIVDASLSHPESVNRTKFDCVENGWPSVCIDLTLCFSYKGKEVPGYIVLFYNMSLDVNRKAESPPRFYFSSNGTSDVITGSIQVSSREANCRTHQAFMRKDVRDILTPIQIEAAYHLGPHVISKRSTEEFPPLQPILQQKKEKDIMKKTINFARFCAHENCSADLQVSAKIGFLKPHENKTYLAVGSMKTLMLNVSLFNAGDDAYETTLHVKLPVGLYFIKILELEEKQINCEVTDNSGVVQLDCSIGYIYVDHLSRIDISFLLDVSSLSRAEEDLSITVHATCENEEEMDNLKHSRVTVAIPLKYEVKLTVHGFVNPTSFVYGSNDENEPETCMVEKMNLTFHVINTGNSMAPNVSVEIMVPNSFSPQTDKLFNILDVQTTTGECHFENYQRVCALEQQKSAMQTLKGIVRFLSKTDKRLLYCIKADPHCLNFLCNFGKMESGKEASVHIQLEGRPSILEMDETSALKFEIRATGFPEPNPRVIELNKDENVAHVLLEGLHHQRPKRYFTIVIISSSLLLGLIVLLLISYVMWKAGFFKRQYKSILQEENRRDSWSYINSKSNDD
T1 sequence (P26010 whole entry): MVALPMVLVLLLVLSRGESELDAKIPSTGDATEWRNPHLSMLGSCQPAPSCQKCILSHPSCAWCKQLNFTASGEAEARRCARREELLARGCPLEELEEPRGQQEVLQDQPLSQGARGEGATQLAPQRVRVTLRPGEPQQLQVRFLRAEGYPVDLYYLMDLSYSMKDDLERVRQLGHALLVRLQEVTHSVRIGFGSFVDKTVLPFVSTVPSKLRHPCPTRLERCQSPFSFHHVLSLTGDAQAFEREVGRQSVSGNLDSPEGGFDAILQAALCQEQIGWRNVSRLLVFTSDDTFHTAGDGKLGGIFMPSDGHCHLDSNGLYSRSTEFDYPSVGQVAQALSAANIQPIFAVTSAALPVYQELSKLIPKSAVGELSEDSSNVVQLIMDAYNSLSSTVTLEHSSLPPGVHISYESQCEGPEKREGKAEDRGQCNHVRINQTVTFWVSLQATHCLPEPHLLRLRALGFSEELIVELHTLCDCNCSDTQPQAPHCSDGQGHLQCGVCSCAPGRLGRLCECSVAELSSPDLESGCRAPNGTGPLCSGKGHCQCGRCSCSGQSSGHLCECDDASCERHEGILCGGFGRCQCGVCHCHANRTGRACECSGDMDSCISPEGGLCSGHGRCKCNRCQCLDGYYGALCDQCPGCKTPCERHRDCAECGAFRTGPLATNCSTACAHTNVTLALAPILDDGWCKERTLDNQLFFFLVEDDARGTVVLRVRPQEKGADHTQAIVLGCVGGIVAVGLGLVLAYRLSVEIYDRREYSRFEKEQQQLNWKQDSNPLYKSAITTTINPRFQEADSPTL
Nature of the series: Inhibition of [125I]MAdCAM-Ig binding to alpha4-beta7 integrin of human RPMI-8866 cells. Format: cell-based.

Series [4] concerns the target T2, Integrin alpha-4/beta-1 (Homo sapiens, UniProt P05556+P13612). As to the kind of experiment: Antagonistic activity against VLA-4 integrin of human jurkat cells using [125I]VCAM-Ig as radioligand. Format: functional, cell-based.
The nature of series [5]: Oral bioavailability in rat (Sprague-Dawley) (dose 1 mg/kg i.v.). Format: ADME, organism-based. As to conditions: in vivo.
Series [6] in a line: Oral bioavailability in rat (Sprague-Dawley) (dose 2 mg/kg). The conditions noted are these: in vivo. Format: ADME, organism-based.
Series [7] has as its target T1, Integrin alpha-4/beta-7. As to the kind of experiment: Inhibition of [125I]VCAM-Ig binding to alpha4-beta7 integrin of human RPMI-8866 cells. The class given is cell-based.
In series [8] the target is T2, Integrin alpha-4/beta-1. As to the kind of experiment: Inhibition of [125I]-VCAM-Ig binding to VLA-4 integrin of human Jurkat cells. The class given is cell-based.
A short description of series [9]: Compound was tested for protein binding in human plasma. Format: ADME, cell-free. The conditions noted are these: read-out: Protein binding (converted).
Series [10] in a line: Oral bioavailability in Sprague-Dawley rats. The class given is ADME, organism-based. The conditions noted are these: rat, in vivo.
Series [11] in a line: Plasma half-life in Beagle dogs. The class given is ADME, organism-based, Canis lupus familiaris. The conditions noted are these: dog.
A short description of series [12]: Plasma half-life in rhesus monkey. The conditions noted are these: cercopithecidae.
Series [13] in a line: Plasma clearance in rhesus monkey. As to conditions: cercopithecidae, read-out: Clp. Format: ADME, organism-based.
Series [14] is described as follows: Plasma clearance in Beagle dogs. Format: ADME, organism-based, Canis lupus familiaris. The conditions noted are these: dog, read-out: Clp.
Series [15] can be described thus: Compound was tested for protein binding in rat plasma. The class given is ADME, organism-based. The conditions noted are these: read-out: Protein binding (converted).
Series [16] concerns the target T2, Integrin alpha-4/beta-1. As to the kind of experiment: Inhibition of [125I]VCAM-Ig binding to VLA-4 integrin of human Jurkat cells. Format: cell-based.

T2 sequence (P05556 whole entry, one chain of several): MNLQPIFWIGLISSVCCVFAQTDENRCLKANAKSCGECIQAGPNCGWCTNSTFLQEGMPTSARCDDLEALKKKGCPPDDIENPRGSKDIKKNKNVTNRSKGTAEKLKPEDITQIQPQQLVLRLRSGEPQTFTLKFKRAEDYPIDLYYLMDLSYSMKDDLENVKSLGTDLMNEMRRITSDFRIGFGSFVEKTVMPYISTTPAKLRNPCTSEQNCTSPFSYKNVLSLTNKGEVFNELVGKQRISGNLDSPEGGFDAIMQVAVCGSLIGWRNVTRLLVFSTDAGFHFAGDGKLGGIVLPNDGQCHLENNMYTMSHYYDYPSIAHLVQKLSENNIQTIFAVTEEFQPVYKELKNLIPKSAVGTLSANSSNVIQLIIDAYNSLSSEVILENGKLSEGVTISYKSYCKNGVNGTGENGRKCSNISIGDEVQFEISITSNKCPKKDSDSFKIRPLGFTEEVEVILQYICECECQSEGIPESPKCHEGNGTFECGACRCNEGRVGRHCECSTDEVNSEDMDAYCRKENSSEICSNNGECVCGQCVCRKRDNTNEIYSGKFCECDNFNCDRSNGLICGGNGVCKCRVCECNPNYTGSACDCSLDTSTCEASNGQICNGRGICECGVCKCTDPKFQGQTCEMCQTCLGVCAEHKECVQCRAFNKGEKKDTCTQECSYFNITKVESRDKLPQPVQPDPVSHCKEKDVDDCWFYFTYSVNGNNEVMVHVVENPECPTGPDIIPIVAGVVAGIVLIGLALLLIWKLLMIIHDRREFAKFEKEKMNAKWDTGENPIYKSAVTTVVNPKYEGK

As usually defined, the half-life is how long it takes for the measured level to halve. The term pIC50 denotes the IC50 on a negative log10 scale, so that one unit is a factor of ten. On to `COc1cccc(OC)c1-c1ccc(C[C@H](NC(=O)[C@]2(C)CCN2S(=O)(=O)c2cc(Cl)cc(Cl)c2)C(=O)O)cc1`, for which, in [1], the clearance is over 100 mL/min/kg. Further, the half-life in series [2] was 1.5 h. Moreover, the values for the pIC50 at Integrin alpha-4/beta-7 [3] and on Integrin alpha-4/beta-1 [4] were 7.85 and 10.15, respectively.

`C[C@@]1(C(=O)N[C@@H](Cc2ccc(-c3ccccn3)cc2)C(=O)O)CCCN1S(=O)(=O)c1cc(Cl)cc(Cl)c1`: the clearance in series [1] is 17 mL/min/kg. In addition, the half-life in series [2] was 1 h. Besides, the pIC50 was 7.01 on Integrin alpha-4/beta-7 [3] and 9.82 on Integrin alpha-4/beta-1 [4].

Regarding `COc1cccc(OC)c1-c1ccc(C[C@H](NC(=O)[C@@H]2CCN2S(=O)(=O)c2cc(Cl)cc(Cl)c2)C(=O)O)cc1`, in series [1], the clearance was over 100 mL/min/kg. The negative logarithm of the IC50 (pIC50) on Integrin alpha-4/beta-7 [3] was 7.97.

One may read the bioavailability as the share of a dose that reaches the circulation, judged against a reference dose that is usually intravenous. As for `COc1ccccc1-c1ccc(C[C@H](NC(=O)[C@@H]2CCCN2S(=O)(=O)c2cc(Cl)cc(Cl)c2)C(=O)O)cc1`, in series [1], the clearance was found to be 39 mL/min/kg. Also, the bioavailability in series [5] and in series [6] was 3% in each case. The compound further had a pIC50 on Integrin alpha-4/beta-1 [4] of 9.19.

For the compound `C[C@@]1(C(=O)N[C@@H](Cc2ccc(-c3ccccc3C(N)=O)cc2)C(=O)O)CCCN1S(=O)(=O)c1cc(Cl)cc(Cl)c1`, in series [2], the half-life is 1.1 h. Also, the pIC50 at Integrin alpha-4/beta-7 [7] is 7.61; at Integrin alpha-4/beta-1 [4] it was 9.85.

Regarding `COc1cccnc1-c1ccc(C[C@H](NC(=O)[C@]2(C)CCCN2S(=O)(=O)c2cc(Cl)cc(Cl)c2)C(=O)O)cc1`, the clearance in series [1] came out at 71 mL/min/kg. Further, the half-life in series [2] was 0.5 h. For the same compound, the figures for the negative-log IC50 (pIC50) on Integrin alpha-4/beta-7 [3] and at Integrin alpha-4/beta-1 [4] were 7.28 and 9.96, respectively.

Turning to `N#Cc1ccccc1-c1ccc(C[C@H](NC(=O)[C@@H]2CCCN2S(=O)(=O)c2cc(Cl)cc(Cl)c2)C(=O)O)cc1`, in series [1], the clearance worked out at 21 mL/min/kg. Besides, the bioavailability in series [5] and in series [6] was 4% each time. This compound also had a pIC50 on Integrin alpha-4/beta-1 [4] of 9.34.

With `COc1ccc(S(=O)(=O)N2Cc3ccccc3C[C@H]2C(=O)N[C@@H](CCC(=O)O)C(=O)O)cc1OC`, the pIC50 at Integrin alpha-4/beta-1 [8] is 6.59.

For the compound `O=C(O)[C@H](Cc1ccc2ccccc2c1)NC(=O)[C@@H]1CCCN1S(=O)(=O)c1cc(Cl)cc(Cl)c1`, the clearance in series [1] was 49 mL/min/kg. Also, the fraction unbound in series [9] is 0.004. This compound also registered a bioavailability in series [10] of 15%. Also, the half-life in [2] is 0.6 h. For the same compound, the negative-log IC50 (pIC50) at Integrin alpha-4/beta-1 [4] is 9.30.

Regarding `COc1cccc(OC)c1-c1ccc(C[C@H](NC(=O)[C@]2(C)CCCN2S(=O)(=O)c2cc(Cl)cc(Cl)c2)C(=O)O)cc1`, in [1], the clearance was over 100 mL/min/kg. In series [2], this compound had a half-life of 2.2 h. For the same compound, the pIC50 was 8.53 at Integrin alpha-4/beta-7 [7], 7.94 on Integrin alpha-4/beta-7 [3] and 10.10 at Integrin alpha-4/beta-1 [4].

`C[C@@]1(C(=O)N[C@@H](Cc2ccc(-c3ccccc3C#N)cc2)C(=O)O)CCCN1S(=O)(=O)c1cc(Cl)cc(Cl)c1`: the half-life in series [11] was 3.4 h; in series [12], 5.3 h; in [2] it was 1.5 h. The fraction unbound in [9] and in [15] was 0.005 each time. In addition, the clearance is 12 mL/min/kg in [13] and 25 mL/min/kg in [14]. For the same compound, the pIC50 on Integrin alpha-4/beta-7 [7] was 6.46; at Integrin alpha-4/beta-1 [4] it was 9.04.

Compound `CCCC[C@H](NC(=O)[C@@H]1Cc2ccccc2CN1S(=O)(=O)c1ccc(OC)c(OC)c1)C(=O)O` gave a pIC50 on Integrin alpha-4/beta-1 [16] of 7.24.
